In patent US8629116B2, “Method for inducing a TRIF-bias” (priority 2008, dated 2014):

Legend:
[1] = test system: MonoMac6 (MM6) cells; assay: NFκB nuclear translocation in MonoMac6 cells (ImageStream); assay type: cell-based, human
Description: MonoMac6 Cells in exponential growth are stimulated with increasing concentrations of AGP diluted in 2% glycerol vehicle for the indicated time points. Immediately fixed cells (in 2% paraformalin overnight) are stained with the primary antibodies, anti-NFκB(p65) (SantaCruz Biotechnology, SantaCruz, Calif.) and anti-IRF3 (BD Biosciences, San Jose, Calif.), in permeabilization buffer (PBS, 2% FBS, 0.1% TritonX) followed by secondary antibodies, anti-Rabbit FITC (Jackson Labs, Bar Harbor, Me.), anti-mouse PE (BD Biosciences, San Jose, Calif.). Similarity scores of signaling protein localization with the nuclear stain DRAQ5 (Alexis Biochemicals (San Diego, Calif.) are used for ImageStream analysis of Nuclear Translocation as previously described {George, 2006 32669/id}. A minimum of 3000 cells are collected and analyzed for each condition tested.
Interferon […] Factor-3 (IRF-3) is a transcription factor activated downstream of the TRIF-dependent TLR4 signaling pathway (Yamamoto et al. 640-43). IRF-3 phosphorylation leads to IRF-3 dimerization, nuclear translocation, and induction of transcription of Type I interferon (IFNβ) and interferon-inducible genes (Honda, Takaoka, and Taniguchi 349-60; Tailor, Tamura, and Ozato 134-40). The ImageStream is capable of measuring nuclear translocation of both NFκB and IRF-3 by quantification of co-localization between the labeled transcription factors and the nucleus of cells stained with a nucleus-specific dye ([…]) (Beum et al. 90-99; George et al. 117-29; Arechiga et al. 7800-04).
In order to compare signaling initiated by CRX-527 and CRX-547, the induction of nuclear translocation of NFκB and IRF-3 by CRX-527 and CRX-547 treatment is compared in the human monocytic cell line, MonoMac6 (MM6) using ImageStream analysis.
To determine whether CRX-547 is able to antagonize NFκB nuclear translocation in cells treated with constant CRX-527, MM6 cells are stimulated for 20 minutes, 35 minutes and 2 hrs with increasing doses of CRX-547 (FIG. 12). When AGPs are added at the same time, CRX-547 antagonized NFκB nuclear translocation induced by CRX-527 at the highest doses. When CRX-547 is constant and spiked with CRX-527 into the assay, CRX-527 stimulation is able to overcome the maximal effect of NFκB nuclear translocation with CRX-547 alone.

[2] = Rabbit toxicology study by IM route; assay type: in vivo; details: for hematology: granulocytosis: day 9 (2 days post-2°), resolves by day 21; for gross pathology: white discoloration of muscle along needle track and at site of injection: low dose (5 μg); for overall impression of toxicity: n=3 rabbits/group
Experimental: Groups of three rabbits (NZW—Western Oregon Rabbit Company, Philomath, Oreg.) are vaccinated with 1 mL diluted AGP, or MPL control, IM on days 0, 7 and 14. Two doses of AGP are evaluated. All animals are monitored for body weight, temperature, clinical condition and draize score. Animals are sacrificed one week post final administration. Blood is collected pretreatment, two days after the 2nd vaccination and upon sacrifice for hematology and clinical chemistry. Histopathology of injection sites and major organs are conducted according to standard practices. All animals are used in accordance with guidelines established by the Public Health Service and the Institutional Animal Care and Use Committee at GlaxoSmithKline Biologicals, Hamilton, Mont.
Toxicity of CRX-527, 524, 547 and compound 1 is evaluated in rabbits receiving AGP only by the intramuscular (IM) route. Groups of three rabbits are vaccinated with 1 mL diluted AGP, or MPL control, IM on days 0, 7 and 14. Two doses of AGP are evaluated: high (25 μg) and low (5 μg). All animals are monitored for body weight, temperature, clinical condition and draize score. Animals are sacrificed one week post final administration. Blood is collected pretreatment, two days after the 2nd vaccination and upon sacrifice for hematology and clinical chemistry. Histopathology of injection sites and major organs are conducted.

[3] = test system: human PBMC-derived macrophages; assay: Cytokine/chemokine induction in the presence of the endocytosis inhibitor Dynasore; assay type: cell-based; details: with Dynasore; for MyD88-dependent MIP-1α induction under inhibition of endocytosis: relative to non-treated cells
[4] = test system: PBMCs from BALB/c mice; assay: Cytokine induction in PBMCs from BALB/c mice; assay type: cell-based, mouse; details: CRX-527 versus CRX-547; experiment performed once
Experimental: To determine whether PBMCs from mouse blood have similar profiles of MyD88 cytokines after CRX-527 or CRX-547 treatment, commercially available blood from BALB/c mice is tested with CRX-527 or CRX-547. (FIG. 24), Levels appear to be similar between the two groups tested.

[5] = target: T1, muTLR4, muMD-2, and muCD14 (Mus musculus, UniProt Q9JHF9+Q9QUK6); assay: NFκB reporter activity in HEK293 cells transfected with muTLR4, muMD-2, muCD14; assay type: cell-based; details: HEK293 muTLR4/muMD-2/muCD14
T1 construct: expressed in transfected cells; host or cells: HEK293
T1 sequence (Q9QUK6 26-835): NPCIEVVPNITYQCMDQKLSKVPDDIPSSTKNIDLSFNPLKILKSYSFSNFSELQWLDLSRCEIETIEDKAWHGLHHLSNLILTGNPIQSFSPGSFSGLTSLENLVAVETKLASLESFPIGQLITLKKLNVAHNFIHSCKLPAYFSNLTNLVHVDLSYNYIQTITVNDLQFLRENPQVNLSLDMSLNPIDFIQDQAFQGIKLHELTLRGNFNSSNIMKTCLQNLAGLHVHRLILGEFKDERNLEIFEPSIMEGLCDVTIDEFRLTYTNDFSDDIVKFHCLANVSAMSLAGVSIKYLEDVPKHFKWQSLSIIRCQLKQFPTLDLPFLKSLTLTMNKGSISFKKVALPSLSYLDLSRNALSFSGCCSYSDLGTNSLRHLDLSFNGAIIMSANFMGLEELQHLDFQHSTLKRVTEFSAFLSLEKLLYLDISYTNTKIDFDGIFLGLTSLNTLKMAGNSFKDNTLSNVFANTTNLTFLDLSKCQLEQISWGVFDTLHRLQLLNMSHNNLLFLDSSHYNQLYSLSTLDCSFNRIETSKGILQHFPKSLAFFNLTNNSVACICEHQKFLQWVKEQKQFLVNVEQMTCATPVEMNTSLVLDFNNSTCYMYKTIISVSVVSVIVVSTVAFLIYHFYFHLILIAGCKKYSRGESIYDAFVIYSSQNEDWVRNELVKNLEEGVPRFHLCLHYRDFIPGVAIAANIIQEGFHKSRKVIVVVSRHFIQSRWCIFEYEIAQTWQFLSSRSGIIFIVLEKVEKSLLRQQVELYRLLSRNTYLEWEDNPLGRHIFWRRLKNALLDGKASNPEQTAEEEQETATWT
T1 sequence (Q9JHF9 19-160): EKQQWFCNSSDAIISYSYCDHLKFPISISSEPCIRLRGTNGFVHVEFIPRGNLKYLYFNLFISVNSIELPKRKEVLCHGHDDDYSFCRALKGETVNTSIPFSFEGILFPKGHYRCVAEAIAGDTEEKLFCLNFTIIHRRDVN

Structure (SMILES) | earliest NFκB nuclear translocation post-stimulation ([1]; MM6 cells) [min] | NFκB nuclear translocation ([1]; MM6 cells, by thirty minutes) [%] | injection site histopathology (myositis) ([2]; high dose) | hematology: granulocytosis ([2]; high dose) | gross pathology: white discoloration of muscle along needle track and at site of injection [2] | hematology: granulocytosis ([2]; low dose) | overall impression of toxicity [2] | TRIF-dependent RANTES induction under inhibition of endocytosis [3] | MyD88-dependent MIP-1α induction under inhibition of endocytosis [3] | MyD88 cytokine levels [4] | effect on NFκB nuclear translocation induced by CRX-527 ([1]; MM6, AGPs added at the same time, highest doses of CRX-547) | NFκB nuclear translocation, threshold never exceeded ([1]; MM6 cells, 5-120 minutes) | injection site histopathology (myositis) ([2]; low dose) | NFκB reporter activity [5]
CCCCCCCCCCCC(CC(=O)NC(COC1OC(CO)C(OP(=O)(O)O)C(OC(=O)CC(CCCCCCCCCCC)OC(=O)CCCCCCCCC)C1NC(=O)CC(CCCCCCCCCCC)OC(=O)CCCCCCCCC)C(=O)O)OC(=O)CCCCCCCCC.CCN(CC)CC (stereo not shown) [CRX-527] | ≤ 5 | ~100 | most consistent and greatest | trend of granulocytosis | seen | trend of granulocytosis | mildly toxic | inhibits | increases slightly | similar | – | – | – | –
CCCCCCCCCCCC(CC(=O)NC(COC1OC(CO)C(OP(=O)(O)O)C(OC(=O)CC(CCCCCCCCCCC)OC(=O)CCCCCCCCC)C1NC(=O)CC(CCCCCCCCCCC)OC(=O)CCCCCCCCC)C(=O)O)OC(=O)CCCCCCCCC.CCN(CC)CC (stereo not shown) [CRX-547] | – | – | – | – | not | – | minimally toxic | inhibits | increases slightly | similar | antagonized | around 50% | no muscle pathology | more similar to CRX-527 and LPS
